Several values for one entry are separate records, joined by “and”; a condition that tells them apart may be missing. Equal entries are not always repeated.

One data set deals with over 350 protein kinases. Description: Ambit KINOMEscan kinome-wide protein kinase screen. Format: binding. The settings on record: 10 μM. From the text: Examples of some kinases in the screen are shown below in Table 3.
For the next data set, the system named is LB cells. Kind of data set: LB cell proliferation with or without BMSCs, [3H]-thymidine uptake. The conditions noted are these: 0.625 μM-10 μM, 48 hours. Format: cell-based, human. On the procedure: LB cells were cultured with control media, and with the compound of formula I for 48 hours, in the presence or absence of BMSCs. Cell proliferation was assessed using [^3H]-thymidine uptake assay. All data represent mean (±SD) of triplicate experiment.

In the next data set the test system is phospho-Akt(Ser473). Description: Constitutive Akt phosphorylation in leukemia and lymphoma cell lines, immunoblot. Format: cell-based. On the procedure:
A large panel of leukemia and lymphoma cell lines was assessed for constitutive Akt phosphorylation. These cell lines represent B-lymphoma, T-lymphoma, ALL, Malignant histiocytosis, DLBCL and AML. […] Thereafter, cell were lysed, size-fractioned and immunoblotted with antibodies directed against phospho-Akt(Ser473).
The PI3K pathway is frequently deregulated in leukemia and lymphoma cell lines. […] In addition, PI3K pathway activation is dependent on p110δ.
In general terms: In western blotting, separated proteins are transferred to a membrane and probed.

Data set [1] deals with HS-578T, T47D, and MCF7 cells. Kind of data set: Apoptosis in breast cancer cell lines, Annexin V-FITC/7AAD. Format: cell-based. The conditions noted are these: 24 h. On the procedure:
HS-578T, T47D, and MCF7 cells were treated with the compound of formula I or corresponding DMSO concentrations for 24 h. The percentage of apoptotic cells was determined by Annexin V-FITC/7AAD staining Bottom left, viable cells (Annexin V-FITC/[…] negative); bottom right, early apoptotic cells (Annexin V-FITC positive only); top right, mid-late apoptotic cells (Annexin V-FITC/7AAD double-positive); and top left, late apoptotic/necrotic (7AAD positive only). Percentages of cells in each quadrant are indicated except for the bottom left quadrant (viable cells).

The conditions of data set [2]: human, in vivo. On the procedure: This example provides data relating to the concentration of the compound of formula I in the blood of a healthy human subject on day 7. The concentration was monitored over a period of 12 hours, after oral administration of 50, 100, or 200 mg BID of the compound of formula I on day 7 of the study. FIG. 11 follows the plasma concentration of the drug over a period of 12 hours from administration.
In addition, single dose studies wherein 17-400 mg of the compound of formula I was administered in healthy volunteers was carried out.
Table 1, below, provides an overview of the subjects in the study, wherein either a singe dose (SD) or multiple dose (MD) of the compound of formula I is administered to a subject at varying amounts. The “n” values refer to the number of subjects in each group.

A further data set deals with Phospho-Akt. Kind of data set: Phospho-Akt production in patient AML cells. The conditions noted are these: 0.1, 1.0, 10 μM. Format: cell-based, human. From the text: PI3Kδ is implicated in signaling in AML patient cells.
Data set [3] deals with p110δ-negative cell lines. Kind of data set: Growth inhibition of p110δ-negative MM cell lines, MTT. Format: cell-based, human. The settings on record: 48 h.
A further data set deals with INA-6 and LB MM cells. Kind of data set: Autophagy: LC3 accumulation, AVO acridine orange staining, LC3/beclin-1 western blot. Format: cell-based, human. From the text: Samples were examined under a fluorescence microscope.
Autophagosome formation was defined by the accumulation of LC3; arrows indicate autophagosomes, FIG. 33A.
GAPDH served as a loading control.

The subject of another data set is LB and INA-6 cells. Description: MM cell DNA synthesis with IL-6 or IGF-1, [3H]-thymidine incorporation. Format: cell-based, human. The settings on record: 5.0 or 10 μM; IL-6 1 and 10 ng/ml, IGF-1 10 and 100 ng/mL. On the procedure:
DNA synthesis was determined by measuring [3H]-thymidine incorporation during the last 8 h of 72 h cultures. Data represent means (±SD) of triplicate cultures.

Data set [4] has as its system LB and INA-6 MM cells with BMSCs. Description: Paracrine MM cell growth, cytokine secretion and signaling with BMSCs. Format: cell-based, human. The settings on record: 48 h. On the procedure:
MM cells (2×10^4 cells/well) were cultured for 48 h in BMSC coated 96-well plates (Costar, Cambridge, Mass.), in the presence or absence of drug. DNA synthesis was measured by [3H]-thymidine (Perkin-Elmer, Boston, Mass.) uptake, with [3H]-thymidine (0.5μ Ci/well) added during the last 8 h of 48 h cultures. All experiments were performed in quadruplicate.
Cytokine secretion by human BMSCs cocultured with MM cells was assessed by ELISA. […] After 48 h, supernatants were harvested and stored at −80° C. Cytokines were measured using Duo set ELISA Development Kits (R&D Systems, Minneapolis, Minn.). All measurements were carried out in triplicate.
The cytokine levels in culture supernatants were assessed using Proteome Profiler Antibody Arrays Panel A (R&D Systems, Minneapolis, Minn.), Supernatants from co-cultures with BMSCs were incubated for 4 hours with membranes arrayed with Abs against 37 cytokines, according to manufacturer's instructions.
DNA synthesis was determined by [3H]-thymidine incorporation. Data represent means (±SD) of triplicate cultures.
Error bars indicate SD (±).
INA-6 cells cultured with or without BMSCs were treated with compound for 48 h. Total cell lysates were subjected to immunoblotting using indicated antibodies, FIG. 34F. Actin was used as a loading control.

A further data set concerns HuVECs. Description: HuVEC viability, MTT. Format: cell-based, human. The settings on record: 0-20 μM, 48 h. From the text: Data shown are mean ±SE of triplicate wells from a representative experiment.
In the next data set the test system is HuVEC cells. Kind of data set: AKT and ERK1/2 in HuVEC lysates, immunoblotting. Format: cell-based, human. The settings on record: 0-200 μM; 8 h. From the text:
Actin was used as a loading control.

A further data set concerns MCL cell lines. Description: Survival factor signaling (pAkt) in MCL cell lines. Format: cell-based.

On to `CC[C@H](Nc1ncnc2[nH]cnc12)c1nc2cccc(F)c2c(=O)n1-c1ccccc1` [Compound I, 5-fluoro-3-phenyl-2-[1-(9H-purin-6-ylamino)-propyl]-3H-quinazolin-4-one], for which the results for the “off target activity in kinome-wide protein kinase screen” value with over 350 protein kinases and with over 350 protein kinases (listed as compound of formula I) were “failed to detect any activity” and “little activity”, respectively. The “LB cell growth in the presence of BMSC” value in the data set on LB cells was “reduced”. The “cell lines in which constitutive AKT phosphorylation was inhibited (FIG. 9)” value with phospho-Akt(Ser473) (10 μM, 2 hrs, including B-cell and T-cell lymphomas) is recorded as 11 out of 11. For the same molecule, in the data set with phospho-Akt(Ser473) (hematopoietic tumor cell lines, 2 hours), the “constitutive Akt(Ser473) phosphorylation” value was “Reduction in Akt(Ser473) was achieved for all cell lines”. Further, the “cell lines in which constitutive AKT phosphorylation was inhibited” value with phospho-Akt(Ser473) (leukemia and lymphoma cell lines with constitutive p-AKT) was 13 of 13 and 13 out of 13. For the same molecule, the “apoptosis in breast cancer cell lines” value in data set [1] is “induces apoptosis”. For the same molecule, the “tolerability in normal healthy volunteers” value in [2] was “well tolerated”. Moreover, the “time the concentration exceeds the PI3Kδ EC50 concentration in basophil” value in data set [2] (7 day) is “at least 12 hours”. The “phospho-Akt production in patient AML cells” value in the data set with Phospho-Akt is listed as “reduces phopsho-Akt production”. In addition, in data set [3], the “cytotoxicity in p110δ-negative cell lines” value is recorded as “minimal cytotoxicity”. The “LC3 staining (immunofluorescence)” value in the data set on INA-6 and LB MM cells (5 μM, 6 h, INA-6 and LB cells) is “markedly increased LC 3 staining”. For the same molecule, the “LC3-II and Beclin1 protein” value in the data set on INA-6 and LB MM cells (INA-6, 6 h) is reported as “markedly increased”. Besides, the “acidic vesicular organelles (acridine orange staining)” value in the data set with INA-6 and LB MM cells (LB and INA-6 cells) is on record as “development of AVOs”. Further, the “growth inhibition in the presence of IL-6 or IGF-1” value with LB and INA-6 cells was “Neither IL-6 nor IGF-1 protected”. Besides, the “MM cell growth induced by BMSCs” value in [4] (2.5, 5, 10 μM) is “inhibited”. Also, in data set [4] (ELISA, cytokine arrays), the “cytokine secretion induced by BMSCs” value was “inhibited”. Besides, the “phosphorylation of AKT and ERK induced by BMSCs” value in data set [4] (INA-6 with BMSCs) is on record as “inhibited”. For the same molecule, in the data set on HuVECs, the “cytotoxicity in HuVECs” value is on record as “without associated cytotoxicity”. Also, the “phosphorylation and expression of AKT and ERK1/2” value with HuVEC cells is on record as “markedly down regulated”. Besides, the “pAkt in MCL lines exposed to survival factors” value in the data set on MCL cell lines is reported as “significant reduction of pAkt”.

The record behind these values is patent publication US20190083498A1, “THERAPIES FOR HEMATOLOGIC MALIGNANCIES” (GILEAD CALISTOGA LLC, priority 2008, published 2019).
